Measured values published in US11180487B2, “Substituted cyanoindoline derivatives as NIK inhibitors” (Janssen Pharmaceutica NV, priority 2016, dated 2021).
Like-named read-outs stand apart in the source and are kept apart here.

Assays:
[1] = system: P-IKKα levels in L363 (NIK translocated multiple myeloma) cells; test: Effect of compounds on P-IKKα levels in L363 cells (Mesoscale sandwich immuno-assay), Biological Assay B; assay type: cell-based, human; details: 2 hr treatment, averaged values, read-out: Inhibition of pIKKα_L-363 (IC50 (nM))
Outline: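 P-IKKα in lysates quantified by Mesoscale sandwich immunoassay after 2 h compound exposure in 1% DMSO, duplicate wells, 8-point 1:3 series. Human L363 cells had been preincubated 24 h with BAFF (1 μg/ml stock). Blank (10 μM ADS125117) subtracted; IC50 fitted sigmoidally to % inhibition of control.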

[2] = system: JJN-3 (NIK translocated) multiple myeloma cells; test: Antiproliferative activity on JJN-3 multiple myeloma cells (CellTiter-Glo, 96 hr), Biological Assay C; assay type: cell-based, human; details: JJN-3 (NIK translocated) cells, averaged values, read-out: JJN-3 Proliferation inhibition (IC50 (nM))
Outline: (§1)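 Growth read-out was CellTiter-Glo luminescence after 96 h compound exposure, given as percent of no-drug control after subtracting a blank of cells read at dosing. Compounds ran as 9-point serial 1:3 dilutions in 0.3% DMSO, duplicate wells, on JJN-3 (15000/well) or KMS12-BM (20000/well) cells in RPMI 1640/10% FCS.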

[3] = system: KMS12-BM (NIK WT) multiple myeloma cells; test: Antiproliferative activity on KMS12-BM multiple myeloma cells (CellTiter-Glo, 96 hr), Biological Assay C; assay type: cell-based, human; details: averaged values, read-out: KMS-12 Proliferation inhibition (IC50 (nM))
Outline: as §1

[4] = target: recombinant human NF-kappaB-inducing kinase (NIK/MAP3K14) (Homo sapiens, UniProt Q99558); test: Inhibition of auto-phosphorylation of recombinant human NIK/MAP3K14 activity (AlphaScreen), Biological Assay A; assay type: biochemical; details: averaged values over all measurements on all batches
Outline: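 AlphaScreen detection with anti-phospho-IKK Ser176/180 antibody plus Protein A acceptor/glutathione donor beads after 1 h, 25 °C reaction of 0.2 nM GST-tagged kinase, 25 μM ATP and compound. Buffer: 50 mM Tris pH 7.5, MgCl2, EGTA, DTT, vanadate; 1% DMSO. IC50 fitted sigmoidally to % inhibition.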

Chain of recombinant human NF-kappaB-inducing kinase (NIK/MAP3K14) (Q99558 whole entry): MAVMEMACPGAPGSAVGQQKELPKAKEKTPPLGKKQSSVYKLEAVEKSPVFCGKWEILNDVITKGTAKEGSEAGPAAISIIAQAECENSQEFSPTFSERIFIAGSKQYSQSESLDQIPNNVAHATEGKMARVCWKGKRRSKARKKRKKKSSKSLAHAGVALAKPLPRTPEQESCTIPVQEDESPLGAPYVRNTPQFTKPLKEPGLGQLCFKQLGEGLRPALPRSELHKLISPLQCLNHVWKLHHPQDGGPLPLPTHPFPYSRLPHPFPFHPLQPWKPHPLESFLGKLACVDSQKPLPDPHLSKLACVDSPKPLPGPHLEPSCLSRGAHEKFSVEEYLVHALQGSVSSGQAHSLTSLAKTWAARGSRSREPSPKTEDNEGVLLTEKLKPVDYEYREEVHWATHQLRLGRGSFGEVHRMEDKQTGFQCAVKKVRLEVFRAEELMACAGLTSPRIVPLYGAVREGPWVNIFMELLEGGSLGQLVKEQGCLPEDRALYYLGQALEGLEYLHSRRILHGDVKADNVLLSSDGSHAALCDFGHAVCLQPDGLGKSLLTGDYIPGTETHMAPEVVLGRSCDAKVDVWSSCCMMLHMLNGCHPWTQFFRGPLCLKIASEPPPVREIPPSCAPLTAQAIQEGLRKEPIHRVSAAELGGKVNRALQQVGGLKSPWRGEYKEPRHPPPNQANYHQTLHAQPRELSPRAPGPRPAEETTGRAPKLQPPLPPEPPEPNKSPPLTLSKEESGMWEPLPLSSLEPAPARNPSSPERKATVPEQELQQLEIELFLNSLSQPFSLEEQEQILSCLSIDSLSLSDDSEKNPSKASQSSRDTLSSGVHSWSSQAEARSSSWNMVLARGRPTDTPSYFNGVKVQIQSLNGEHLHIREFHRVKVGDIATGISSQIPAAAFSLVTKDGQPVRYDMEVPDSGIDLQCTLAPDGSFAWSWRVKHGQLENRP

Row | SMILES | IC50 [1] | IC50 [2] | IC50 [3] | IC50 [4] | melting point | IC50 ([1]; Homo sapiens, L-363, 2 h) | IC50 ([2]; Homo sapiens, JJN-3, 96 h) | IC50 ([3]; Homo sapiens, KMS-12-BM, 96 h)
1 | Cc1ccc(C#N)cc1Nc1nccc(-c2cc(C#N)c3c(c2)[C@@](C)(CO)CN3)n1 [Compound 130] | 2.2 nM | 167 nM | 9770 nM | 1.5 nM | 264 °C |  |  | 
2 | CCCCc1ccc(C#N)cc1Nc1nccc(-c2cc(C#N)c3c(c2)[C@@](C)(CO)CN3)n1 [Compound 15] |  |  |  | 11 nM | 110 °C | ~269 nM | 117 nM | > 10000 nM
3 | Cc1ccc(C#N)cc1Nc1nccc(-c2cc(C#N)c3c(c2)[C@@](C)(COC(=O)C(C)C)CN3)n1 [Compound 126] |  |  |  | 112 nM | 200 °C | ~6.9 nM | 151 nM | ~8910 nM
4 | Cc1cc(F)c(C(=O)NC2CCOC2)cc1Nc1nccc(-c2cc(C#N)c3c(c2)[C@@](C)(CO)CN3)n1 (single isomer, unassigned) [Compound 169] | 8.3 nM | ~1000 nM | > 10000 nM | 8.7 nM | 256 °C |  |  | 
5 | CC1(COc2ccc(C#N)cc2Nc2nccc(-c3cc(C#N)c4c(c3)[C@@](C)(CO)CN4)n2)COC1 [Compound 14] |  |  |  | 5.5 nM | 162 °C | 21.4 nM | 170 nM | > 10000 nM
6 | COc1cc(S(C)(=O)=O)ccc1Nc1nccc(-c2cc(C#N)c3c(c2)[C@@](C)(CO)CN3)n1 [Compound 73] |  |  |  | 2.2 nM | 201 °C | 1.4 nM | 68 nM | > 10000 nM
7 | Cc1ccc(C#N)cc1Nc1nccc(-c2cc(C#N)c3c(c2)[C@@](C)(CO)CN3)n1 [Compound 133] | 3 nM | 170 nM | 4360 nM | 0.7 nM | 262 °C |  |  | 
8 | COc1cc(P(C)(C)=O)ccc1Nc1nccc(-c2cc(C#N)c3c(c2)[C@@](C)(CO)CN3)n1 [Compound 64] |  |  |  | 1.8 nM | 160 °C | 18.2 nM | ~246 nM | 1230 nM
9 | Cc1cc(F)c(C(=O)NC2CCN(C)C2)cc1Nc1nccc(-c2cc(C#N)c3c(c2)[C@@](C)(CO)CN3)n1 (single isomer, unassigned) [Compound 166] |  |  |  | 8.9 nM | 116 °C | 18.6 nM | 955 nM | > 10000 nM
10 | CNC(=O)c1cc(Nc2nccc(-c3cc(C#N)c4c(c3)[C@@](C)(CO)CN4)n2)c(C)cc1F [Compound 155] |  |  |  | 3.5 nM | 218 °C | 7.7 nM | 467 nM | > 10000 nM
11 | CC(=O)OC[C@@]1(C)CNc2c(C#N)cc(-c3ccnc(Nc4cc(C#N)ccc4C)n3)cc21 [Compound 125] |  |  |  | 13.8 nM | 213 °C | 3.6 nM | 182 nM | ~6920 nM
12 | Cc1ccc(C#N)cc1Nc1nccc(-c2cc(C#N)c3c(c2)[C@@](C)(COC(=O)[C@H](N)Cc2ccccc2)CN3)n1 [Compound 140] |  |  |  | 51.3 nM | 180 °C | 56.2 nM | 550 nM | ~9120 nM
13 | COc1cc(C(=O)NC2CCOCC2)c(Cl)cc1Nc1nccc(-c2cc(C#N)c3c(c2)C(C)(C)CN3)n1 [Compound 108] |  |  |  | 11 nM | > 260 °C | 3.8 nM | 39 nM | > 3980 nM
14 | Cc1cc(S(C)(=O)=O)ccc1Nc1nccc(-c2cc(C#N)c3c(c2)[C@@](C)(CO)CN3)n1 [Compound 17] |  |  |  | 1.1 nM | 148 °C | 6.8 nM | 56 nM | 479 nM

More lines, now with the values ahead:

Row | IC50 [1] | IC50 [2] | IC50 [3] | IC50 [4] | melting point | IC50 ([1]; Homo sapiens, L-363, 2 h) | IC50 ([2]; Homo sapiens, JJN-3, 96 h) | IC50 ([3]; Homo sapiens, KMS-12-BM, 96 h) | SMILES
15 |  |  |  | 9.8 nM | 151 °C | 107 nM | 4270 nM | ~7940 nM | COCCNCc1ccc(C)c(Nc2nccc(-c3cc(C#N)c4c(c3)[C@@](C)(CO)CN4)n2)c1 [Compound 217]
16 |  |  |  | 20 nM | 181 °C | 19.5 nM | 195 nM | > 10000 nM | C[C@]1(CO)CNc2c(C#N)cc(-c3ccnc(Nc4cc(C#N)ccc4CNC4CC4)n3)cc21 [Compound 225]
17 |  |  |  | 7.6 nM | 207 °C | 22.4 nM | 251 nM | > 10000 nM | C[C@]1(CO)CNc2c(C#N)cc(-c3ccnc(Nc4cc(C#N)ccc4CCN4CC(F)C4)n3)cc21 [Compound 229]
18 |  |  |  | 6.2 nM | 297 °C | 1.5 nM | 14 nM | ~3980 nM | [2H]C([2H])([2H])N1CCN(C(=O)c2cc(C#N)cc(Nc3nccc(-c4cc(C#N)c5c(c4)[C@@](C)(CO)CN5)n3)c2C)CC1 [Compound 204]
19 |  |  |  | 4.8 nM | 193 °C | 2.4 nM | 65 nM | > 10000 nM | CCC(=O)NCCCc1cc(C)c(Nc2nccc(-c3cc(C#N)c4c(c3)[C@@](C)(CO)CN4)n2)cc1C#N [Compound 172]
20 |  |  |  | 14.5 nM | 254 °C | 14.8 nM | 132 nM | > 10000 nM | C[C@]1(CO)CNc2c(C#N)cc(-c3ccnc(Nc4cc(C#N)c(F)cc4OC4CC4)n3)cc21 [Compound 209]
21 |  |  |  | 3.6 nM | 193 °C | 1.4 nM | 17 nM | 479 nM | Cc1c(CN2CC(C)OC(C)C2)cc(C#N)cc1Nc1nccc(-c2cc(C#N)c3c(c2)[C@@](C)(CO)CN3)n1 (stereo partly shown) [Compound 194]
22 |  |  |  | 1.6 nM | 129 °C | 3.1 nM | 23 nM | ~851 nM | CN1CCC(Oc2ccc(C#N)cc2Nc2nccc(-c3cc(C#N)c4c(c3)[C@@](C)(CO)CN4)n2)CC1 [Compound 223]
23 |  |  |  | 6 nM | 201 °C | 11.2 nM | 162 nM | > 10000 nM | [2H]C1([2H])OC([2H])([2H])C([2H])([2H])N(C(=O)c2cccc(Nc3nccc(-c4cc(C#N)c5c(c4)[C@@](C)(CO)CN5)n3)c2C)C1([2H])[2H] [Compound 205]
24 |  |  |  | 3.9 nM | 133 °C | 60.3 nM | 457 nM | 2690 nM | Cc1ccc(OCCNC2CC2)c(Nc2nccc(-c3cc(C#N)c4c(c3)[C@@](C)(CO)CN4)n2)c1 [Compound 235]
25 |  |  |  | 2.6 nM | 190 °C | 5.4 nM | 54 nM | > 10000 nM | Cc1cc(-c2cnn(C)c2)c(C#N)cc1Nc1nccc(-c2cc(C#N)c3c(c2)[C@@](C)(CO)CN3)n1 [Compound 188]
26 |  |  |  | 5 nM | 268 °C | 13.2 nM | 66 nM | ~9550 nM | Cc1c(Nc2nccc(-c3cc(C#N)c4c(c3)[C@@](C)(CO)CN4)n2)cccc1C(=O)N1CCN(C2COC2)CC1 [Compound 207]
27 |  |  |  | 72.4 nM | 250 °C | 2950 nM | 1180 nM | 537 nM | Cc1ccc(C2CCN(C)CC2)cc1Nc1nccc(-c2cc(C#N)c3c(c2)[C@@](C)(CO)CN3)n1 [Compound 192]
28 |  |  |  | 9.1 nM | 209 °C | 7.1 nM | 501 nM | > 10000 nM | Cc1cc(F)c(C(=O)NCC2COC2)cc1Nc1nccc(-c2cc(C#N)c3c(c2)[C@@](C)(CO)CN3)n1 [Compound 183]
29 |  |  |  | 3.5 nM | 211 °C | 2 nM | 71 nM | > 10000 nM | Cc1cc(CCN2CC(F)C2)c(C#N)cc1Nc1nccc(-c2cc(C#N)c3c(c2)[C@@](C)(CO)CN3)n1 [Compound 174]
